Source: patent publication US5231107A, “Derivatives of the oxime of 1,2,5,6-tetrahydropyridine 3-carboxaldehyde, the process for their preparation, their use as medicaments and the compositions containing them” (priority 1987, dated 1993)
Where two headings read alike, the source gives them in different places.

Key:
[1] = tested on: central cholinergic system; settings: in vivo; cited from earlier work
[2] = Hypothermic activity; type: in vivo, male mice (CD1 Charles Rivers); settings: Mus musculus, read-out: Effective dose (-1° C.)
Procedure: The test is carried out on male mice (CD1 Charles Rivers) weighing 25-30 g, which have fasted for 6 hours.
The temperature of the body is noted by means of a thermocouple inserted about 1.5 cm in the rectum and connected to an electric temperature recorder.
The products are administered by oral or sub-cutaneous route and the temperatures are noted at the instant 0 and at 30 minutes, 1 hour, 2 hours and 2-and-a-half hours after treatment.
The degree of hypothermia is evaluated as the difference between the treated animals and the controls, and the dose necessary to reduce the body temperature by 1° C. is noted.

[3] = in vivo; design: species or system male mice (CD1 Charles Rivers); settings: oral route; male CD1 mice; method of Miller and Tainter
Procedure: The test is carried out on male mice (CD1 Charles Rivers) weighing 25 to 30 g, which have fasted for 6 hours. The product dissolved at 5% in methocel is administered by oral route by means of an oesophage probe.
Control animals receive only the excipient.
After treatment, the animals are placed separately in cages of which the base is covered with blotting paper, and they are put under observation for 30, 60, 120 and 180 minutes.
The sheets of absorbent paper are changed after each observation.
The consistency of the feces is evaluated according to the method of Randall and Baruth (Arch. Int. Pharmacodyn. 220, 94, 1976) according to the following scale of values.
1: feces slightly soft, with or without a damp halo,
2: feces slightly soft, with a well-defined circle of humidity,
3: feces soft with a large circle of humidity,
4: feces without consistency with a very large circle of humidity.
For each product, the dose is noted which causes diarrhoea in 50% of the animals according to the method of Miller and Tainter (Proc. Soc. Exp. Biol. Med., 57, 261, 1944).

[4] = tested on: ileum isolated from guinea-pig; experiment: Test of ileum isolated from guinea-pig; settings: Cavia porcellus, agonist activity, Tyrode solution, 37° C., read-out: pD2 (negative logarithm of the dose which produces 50% of the maximum effect) (converted)
Procedure: Pieces of ileum are removed from guinea-pigs killed by decapitation. The isolated ileum is placed in 10 cm^3 of Tyrode solution at 37° C. and aerated with a mixture of oxygen (95%) and carbon dioxide gas (5%). The contractions due to the products are registered by means of a detector connected to a polygraph. […].
The possible antagonist activity of the products is tested vis-a-vis acetylcholine.
The agonist activity is expressed in pD2 (negative logarithm of the dose which produces 50% of the maximum effect).
The antagonist activity is expressed in DE50 (dose reducing by 50% the maximum response induced by acetylcholine).

[5] = intravenous route; cited from earlier work

Q: With `COC(=O)C1=CCCN(C)C1` [Arecoline, arecoline, reference compound] as the compound, how does the “duration of action of arecoline” value [1] read?
A: Its value is “short duration of action”.

Q: What about the ED (-1 C) ([2]; oral route (O.R.)) of the same compound?
A: The ED (-1 C) was 194 mg/kg.

Q: And the ED (-1 C) ([2]; sub-cutaneous route (SC.R))?
A: The ED (-1 C) was 3 mg/kg.

Q: And the “DE50 (dose which causes diarrhoea in 50% of the animals)” value [3]?
A: Its value is 35 mg/kg.

Q: What about the EC50 [4] of the same compound?
A: Its EC50 is 331 nM.

Q: And the “effect on patients having a memory defect” value [5]?
A: The value was “positive effect”.
